Laboratory results: patent US6525001B1, “Substituted pyrimidine and pyridine herbicides” (Mid-American Commercialization Corporation, priority 1997, dated 2003)

Tests used:
Assay in all cases: Test B pre-/postemergence
Assay type in all cases: in vivo
Parameters in all cases: key: 0 is no effect; 10 is complete control
[1] = tested on: bedstraw (Galium aparine)
How it was run: (§1)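 Scored visually 0 (none) to 10 (complete control) against untreated plants after twelve to sixteen greenhouse days. Test chemicals, formulated in surfactant-containing non-phytotoxic solvent, applied to soil after planting and, separately, onto 1- to 4-leaf (2–18 cm) plants.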

[2] = tested on: blackgrass (Alopecurus myosuroides)
How it was run: as §1

[3] = tested on: broadleaf signalgrass (Brachiaria decumbens)
How it was run: as §1

[4] = tested on: cocklebur (Xanthium strumarium)
How it was run: as §1

[5] = tested on: corn (Zea mays)
How it was run: as §1

[6] = tested on: crabgrass (Digitaria sanguinalis)
How it was run: as §1

[7] = tested on: giant foxtail (Setaria faberii)
How it was run: as §1

[8] = tested on: momingglory (Ipomoea hederacea)
How it was run: as §1

[9] = tested on: pigweed (Amaranthus retroflexus)
How it was run: as §1

[10] = tested on: rape (Brassica napus)
How it was run: as §1

[11] = tested on: soybean (Glycine max)
How it was run: as §1

[12] = tested on: sugar beet (Beta vulgaris)
How it was run: as §1

[13] = tested on: velvetleaf (Abutilon theophrasti)
How it was run: as §1

[14] = tested on: wheat (Triticum aestivum)
How it was run: as §1

[15] = Preemergence, Rate 62 g/ha, scale of 0 to 10

Cc1cnc(-n2ccc(C(F)(F)F)n2)nc1C(=O)c1cccc(C(F)(F)F)c1 [Compound 59]
Plant response rating, Bedstraw [1, 15]: 3 | Bedstraw plant response rating ([1]; Rate 62 g/ha, Postemergence): 7 | Bedstraw plant response rating ([1]; Rate 125 g/ha, Postemergence): 7 | Plant response rating, Bedstraw ([1]; Rate 125 g/ha, Preemergence): 6 | Plant response rating, Bedstraw ([1]; Rate 250 g/ha, Postemergence): 8 | Plant response rating, Bedstraw ([1]; Rate 250 g/ha, Preemergence): 6 | Plant response rating, Bedstraw ([1]; Rate 500 g/ha, Postemergence): 9 | Plant response rating, Bedstraw ([1]; Rate 500 g/ha, Preemergence): 8 | Plant response rating, Blackgrass [2, 15]: 2 | Blackgrass plant response rating ([2]; Rate 62 g/ha, Postemergence): 2 | Blackgrass plant response rating ([2]; Rate 125 g/ha, Postemergence): 3 | Plant response rating, Blackgrass ([2]; Rate 125 g/ha, Preemergence): 3 | Plant response rating, Blackgrass ([2]; Rate 250 g/ha, Postemergence): 5 | Plant response rating, Blackgrass ([2]; Rate 250 g/ha, Preemergence): 7 | Plant response rating, Blackgrass ([2]; Rate 500 g/ha, Postemergence): 6 | Plant response rating, Blackgrass ([2]; Rate 500 g/ha, Preemergence): 9 | B. signalgrass plant response rating ([3]; Rate 62 g/ha, Postemergence): 2 | B. signalgrass plant response rating ([3]; Rate 62 g/ha, Preemergence): 7 | B. signalgrass plant response rating ([3]; Rate 125 g/ha, Postemergence): 2 | Plant response rating, B. signalgrass ([3]; Rate 125 g/ha, Preemergence): 9 | Plant response rating, B. signalgrass ([3]; Rate 250 g/ha, Postemergence): 2 | Plant response rating, B. signalgrass ([3]; Rate 250 g/ha, Preemergence): 9 | Plant response rating, B. signalgrass ([3]; Rate 500 g/ha, Postemergence): 3 | Plant response rating, B. signalgrass ([3]; Rate 500 g/ha, Preemergence): 9 | Plant response rating, Cocklebur [4, 15]: 0 | Cocklebur plant response rating ([4]; Rate 62 g/ha, Postemergence): 4 | Cocklebur plant response rating ([4]; Rate 125 g/ha, Postemergence): 7 | Plant response rating, Cocklebur ([4]; Rate 125 g/ha, Preemergence): 2 | Plant response rating, Cocklebur ([4]; Rate 250 g/ha, Postemergence): 7 | Plant response rating, Cocklebur ([4]; Rate 500 g/ha, Postemergence): 8 | Plant response rating, Cocklebur ([4]; Rate 500 g/ha, Preemergence): 2 | Plant response rating, Corn [5, 15]: 0 | Corn plant response rating ([5]; Rate 62 g/ha, Postemergence): 1 | Corn plant response rating ([5]; Rate 125 g/ha, Postemergence): 2 | Plant response rating, Corn ([5]; Rate 125 g/ha, Preemergence): 1 | Plant response rating, Corn ([5]; Rate 250 g/ha, Postemergence): 3 | Plant response rating, Corn ([5]; Rate 250 g/ha, Preemergence): 1 | Plant response rating, Corn ([5]; Rate 500 g/ha, Postemergence): 4 | Plant response rating, Corn ([5]; Rate 500 g/ha, Preemergence): 3 | Plant response rating, Crabgrass [6, 15]: 8 | Crabgrass plant response rating ([6]; Rate 62 g/ha, Postemergence): 6 | Crabgrass plant response rating ([6]; Rate 125 g/ha, Postemergence): 6 | Plant response rating, Crabgrass ([6]; Rate 125 g/ha, Preemergence): 9 | Plant response rating, Crabgrass ([6]; Rate 250 g/ha, Postemergence): 8 | Plant response rating, Crabgrass ([6]; Rate 250 g/ha, Preemergence): 10 | Plant response rating, Crabgrass ([6]; Rate 500 g/ha, Postemergence): 9 | Plant response rating, Crabgrass ([6]; Rate 500 g/ha, Preemergence): 10 | Plant response rating, Giant foxtail [7, 15]: 8 | Giant foxtail plant response rating ([7]; Rate 62 g/ha, Postemergence): 6 | Giant foxtail plant response rating ([7]; Rate 125 g/ha, Postemergence): 6 | Plant response rating, Giant foxtail ([7]; Rate 125 g/ha, Preemergence): 10 | Plant response rating, Giant foxtail ([7]; Rate 250 g/ha, Postemergence): 8 | Plant response rating, Giant foxtail ([7]; Rate 250 g/ha, Preemergence): 10 | Plant response rating, Giant foxtail ([7]; Rate 500 g/ha, Postemergence): 9 | Plant response rating, Giant foxtail ([7]; Rate 500 g/ha, Preemergence): 10 | Plant response rating, Morningglory [8, 15]: 6 | Morningglory plant response rating ([8]; Rate 62 g/ha, Postemergence): 7 | Plant response rating, Morningglory ([8]; Rate 125 g/ha, Preemergence): 6 | Plant response rating, Morningglory ([8]; Rate 250 g/ha, Postemergence): 10 | Plant response rating, Morningglory ([8]; Rate 250 g/ha, Preemergence): 10 | Plant response rating, Morningglory ([8]; Rate 500 g/ha, Postemergence): 10 | Plant response rating, Morningglory ([8]; Rate 500 g/ha, Preemergence): 10 | Plant response rating, Redroot pigweed [9, 15]: 8 | Redroot pigweed plant response rating ([9]; Rate 62 g/ha, Postemergence): 8 | Redroot pigweed plant response rating ([9]; Rate 125 g/ha, Postemergence): 8 | Plant response rating, Redroot pigweed ([9]; Rate 125 g/ha, Preemergence): 10 | Plant response rating, Redroot pigweed ([9]; Rate 250 g/ha, Postemergence): 8 | Plant response rating, Redroot pigweed ([9]; Rate 250 g/ha, Preemergence): 10 | Plant response rating, Redroot pigweed ([9]; Rate 500 g/ha, Postemergence): 9 | Plant response rating, Redroot pigweed ([9]; Rate 500 g/ha, Preemergence): 10 | Plant response rating, Rape [10, 15]: 5 | Rape plant response rating ([10]; Rate 62 g/ha, Postemergence): 6 | Rape plant response rating ([10]; Rate 125 g/ha, Postemergence): 7 | Plant response rating, Rape ([10]; Rate 125 g/ha, Preemergence): 7 | Plant response rating, Rape ([10]; Rate 250 g/ha, Postemergence): 7 | Plant response rating, Rape ([10]; Rate 250 g/ha, Preemergence): 7 | Plant response rating, Rape ([10]; Rate 500 g/ha, Postemergence): 7 | Plant response rating, Rape ([10]; Rate 500 g/ha, Preemergence): 10 | Plant response rating, Soybean [11, 15]: 1 | Soybean plant response rating ([11]; Rate 62 g/ha, Postemergence): 6 | Soybean plant response rating ([11]; Rate 125 g/ha, Postemergence): 7 | Plant response rating, Soybean ([11]; Rate 125 g/ha, Preemergence): 2 | Plant response rating, Soybean ([11]; Rate 250 g/ha, Postemergence): 8 | Plant response rating, Soybean ([11]; Rate 250 g/ha, Preemergence): 2 | Plant response rating, Soybean ([11]; Rate 500 g/ha, Postemergence): 9 | Plant response rating, Soybean ([11]; Rate 500 g/ha, Preemergence): 4 | Plant response rating, Sugarbeets [12, 15]: 10 | Sugarbeets plant response rating ([12]; Rate 62 g/ha, Postemergence): 9 | Sugarbeets plant response rating ([12]; Rate 125 g/ha, Postemergence): 9 | Plant response rating, Sugarbeets ([12]; Rate 125 g/ha, Preemergence): 10 | Plant response rating, Sugarbeets ([12]; Rate 250 g/ha, Postemergence): 9 | Plant response rating, Sugarbeets ([12]; Rate 250 g/ha, Preemergence): 10 | Plant response rating, Sugarbeets ([12]; Rate 500 g/ha, Postemergence): 9 | Plant response rating, Sugarbeets ([12]; Rate 500 g/ha, Preemergence): 10 | Plant response rating, Velvetleaf [13, 15]: 7 | Velvetleaf plant response rating ([13]; Rate 62 g/ha, Postemergence): 6 | Velvetleaf plant response rating ([13]; Rate 125 g/ha, Postemergence): 7 | Plant response rating, Velvetleaf ([13]; Rate 125 g/ha, Preemergence): 7 | Plant response rating, Velvetleaf ([13]; Rate 250 g/ha, Postemergence): 7 | Plant response rating, Velvetleaf ([13]; Rate 250 g/ha, Preemergence): 9 | Plant response rating, Velvetleaf ([13]; Rate 500 g/ha, Postemergence): 8 | Plant response rating, Velvetleaf ([13]; Rate 500 g/ha, Preemergence): 10 | Plant response rating, Wheat [14, 15]: 1 | Wheat plant response rating ([14]; Rate 62 g/ha, Postemergence): 1 | Wheat plant response rating ([14]; Rate 125 g/ha, Postemergence): 2 | Plant response rating, Wheat ([14]; Rate 125 g/ha, Preemergence): 2 | Plant response rating, Wheat ([14]; Rate 250 g/ha, Postemergence): 2 | Plant response rating, Wheat ([14]; Rate 250 g/ha, Preemergence): 3 | Plant response rating, Wheat ([14]; Rate 500 g/ha, Postemergence): 3 | Plant response rating, Wheat ([14]; Rate 500 g/ha, Preemergence): 5
